Results taken from the supplement of paper PMC11061612.

Experiments:
Test in all cases: Bliss excess, mean over the matrix (fraction); higher = more synergy
[1] = test system: CAMA-1 (Breast Carcinoma)
Procedure, shortened: (§1)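 After 24 hours at 37°C and 5% CO2 in 1536-well plates, cells in DMEM/F12 or RPMI plus 10% FBS received two-drug dose matrices for 72 hours. Viability came from CellTiter-Glo 2.0 luminescence and was scaled as inhibition, anchored at 0 by vehicle wells and at 1 by blank wells. Combination Emax is taken as the second-highest inhibition in the matrix, and Bliss excess as the observed combination effect less EA + EB − EA·EB, with EA and EB the single-agent effects.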

NCI-H2818 (Mesothelioma) = test system: NCI-H2818 (Mesothelioma)
Procedure, shortened: as §1

[2] = test system: MKN28 (Gastric Carcinoma)
Procedure, shortened: as §1

MEL-JUSO (Melanoma) = test system: MEL-JUSO (Melanoma)
Procedure, shortened: as §1

[3] = test system: NCI-H847 (Small Cell Lung Carcinoma)
Procedure, shortened: as §1

[4] = test system: KARPAS-45 (T-Lymphoblastic Leukemia)
Procedure, shortened: as §1

[5] = test system: HDQ-P1 (Breast Carcinoma)
Procedure, shortened: as §1

WM-115 (Melanoma) = test system: WM-115 (Melanoma)
Procedure, shortened: as §1

[6] = test system: TE-6 (Esophageal Squamous Cell Carcinoma)
Procedure, shortened: as §1

[7] = test system: SU-DHL-8 (B-Cell Non-Hodgkin's Lymphoma)
Procedure, shortened: as §1

[8] = test system: SW837 (Colorectal Carcinoma)
Procedure, shortened: as §1

[9] = test system: KCL-22 (Chronic Myelogenous Leukemia)
Procedure, shortened: as §1

[10] = test system: P12-ICHIKAWA (T-Lymphoblastic Leukemia)
Procedure, shortened: as §1

[11] = test system: SW1417 (Colorectal Carcinoma)
Procedure, shortened: as §1

[12] = test system: DiFi (Colorectal Carcinoma)
Procedure, shortened: as §1

[13] = test system: BL-41 (Burkitt's Lymphoma)
Procedure, shortened: as §1

[14] = test system: MFM-223 (Breast Carcinoma)
Procedure, shortened: as §1

[15] = test system: L-540 (Hodgkin's Lymphoma)
Procedure, shortened: as §1

[16] = test system: EVSA-T (Breast Carcinoma)
Procedure, shortened: as §1

[17] = test system: COLO-678 (Colorectal Carcinoma)
Procedure, shortened: as §1

| Compound | Bliss excess [1] | Bliss excess (NCI-H2818 (Mesothelioma)) | Bliss excess [2] | Bliss excess (MEL-JUSO (Melanoma)) | Bliss excess [3] | Bliss excess [4] | Bliss excess [5] | Bliss excess (WM-115 (Melanoma)) | Bliss excess [6] | Bliss excess [7] | Bliss excess [8] | Bliss excess [9] | Bliss excess [10] | Bliss excess [11] | Bliss excess [12] | Bliss excess [13] | Bliss excess [14] | Bliss excess [15] | Bliss excess [16] | Bliss excess [17] |
| --- | --- | --- | --- | --- | --- | --- | --- | --- | --- | --- | --- | --- | --- | --- | --- | --- | --- | --- | --- | --- |
| CN(C)CCCOc1ccc(-c2ccc3ncc4c(c3c2)n(C2CCOCC2)c(=O)n4C)cn1 [AZD0156] + O=C(c1cc(Cc2n[nH]c(=O)c3ccccc23)ccc1F)N1CCN(C(=O)C2CC2)CC1 [Olaparib] (first compound max 3 µM, partner max 3 µM) | 0.0457 | -0.0202 | -0.0432 | -0.0387 | 0.227 | 0.0456 | -0.0859 | 0.0028 | 0.0029 | 0.0543 | 0.0159 | 0.157 | 0.191 | -0.0287 | -0.0082 | 0.127 | -0.0186 | 0.0746 | 0.092 | -0.0152 |
| C=CCn1c(=O)c2cnc(Nc3ccc(N4CCN(C)CC4)cc3)nc2n1-c1cccc(C(C)(C)O)n1 [AZD1775] + C1CN(CCC1(C(=O)N[C@@H](CCO)C2=CC=C(C=C2)Cl)N)C3=NC=NC4=C3C=CN4 [Capivasertib] (first compound max 3 µM, partner max 3 µM) | -0.0244 | -0.0493 | -0.0219 | -0.0352 | -0.0643 | -0.0046 | -0.0679 | -0.116 | 0.0422 | 0.0097 | -0.0504 | 0.035 | 0.0076 | -0.0368 | 0.0272 | 0.0156 | -0.0369 | -0.0019 | 0.129 | -0.0893 |
| CN(CCO)CC[C@H](CSc1ccccc1)Nc1ccc(S(=O)(=O)NC(=O)c2ccc(N3CCC([C@@H](O)c4ccccc4-c4ccc(Cl)cc4)CC3)cc2)cc1S(=O)(=O)C(F)(F)F [AZD4320] + C1CN(CCC1(C(=O)N[C@@H](CCO)C2=CC=C(C=C2)Cl)N)C3=NC=NC4=C3C=CN4 [Capivasertib] (first compound max 1 µM, 7x7, partner max 3 µM) | -0.0365 | -0.126 | -0.0404 | -0.0472 | 0.0226 | 0.0265 | 0.0119 | 0.0144 | 0.0377 | -0.0454 | -0.0453 | -0.0075 | 0.0119 | -0.0671 | -0.0475 | -0.0146 | -0.01 | -0.0075 | -0.0161 | -0.0741 |
| CN(CCO)CC[C@H](CSc1ccccc1)Nc1ccc(S(=O)(=O)NC(=O)c2ccc(N3CCC([C@@H](O)c4ccccc4-c4ccc(Cl)cc4)CC3)cc2)cc1S(=O)(=O)C(F)(F)F [AZD4320] + C=CCn1c(=O)c2cnc(Nc3ccc(N4CCN(C)CC4)cc3)nc2n1-c1cccc(C(C)(C)O)n1 [AZD1775] (first compound max 1 µM, partner max 1 µM) | -0.0421 | -0.0586 | -0.0545 | 0.042 | 0.0494 | -0.0041 | 0.0886 | 0.0052 | 0.0061 | 0.0017 | -0.0063 | 0.0022 | 0.0899 | -0.106 | 0.007 | 0.0361 | -0.0103 | 0.0594 | 0.0394 | -0.0459 |
| CN(CCO)CC[C@H](CSc1ccccc1)Nc1ccc(S(=O)(=O)NC(=O)c2ccc(N3CCC([C@@H](O)c4ccccc4-c4ccc(Cl)cc4)CC3)cc2)cc1S(=O)(=O)C(F)(F)F [AZD4320] + CCN(CCO)CCCOc1ccc2c(Nc3cc(CC(=O)Nc4cccc(F)c4)[nH]n3)ncnc2c1 [AZD2811] (first compound max 1 µM, 7x7, partner max 1 µM) | 0.0961 | -0.0555 | -0.0107 | 0.0289 | 0.0014 | -0.0137 | 0.0258 | -0.0003 | 0.0228 | -0.013 | 0.0082 | 0.0572 | 0.0103 | -0.0306 | -0.013 | -0.0172 | -0.0022 | 0.0985 | 0.156 | -0.0247 |
| CN(CCO)CC[C@H](CSc1ccccc1)Nc1ccc(S(=O)(=O)NC(=O)c2ccc(N3CCC([C@@H](O)c4ccccc4-c4ccc(Cl)cc4)CC3)cc2)cc1S(=O)(=O)C(F)(F)F [AZD4320] + CN(C)CCCOc1ccc(-c2ccc3ncc4c(c3c2)n(C2CCOCC2)c(=O)n4C)cn1 [AZD0156] (first compound max 1 µM, 7x7, partner max 1 µM) | -0.0591 | -0.0501 | -0.0429 | 0.0034 | 0.0109 | -0.0326 | -0.03 | -0.0469 | 0.0418 | -0.044 | -0.0322 | 0.0373 | 0.024 | -0.0567 | 0.0046 | 0.0153 | -0.0347 | 0.0178 | -0.0125 | -0.081 |
| CN(CCO)CC[C@H](CSc1ccccc1)Nc1ccc(S(=O)(=O)NC(=O)c2ccc(N3CCC([C@@H](O)c4ccccc4-c4ccc(Cl)cc4)CC3)cc2)cc1S(=O)(=O)C(F)(F)F [AZD4320] + C[C@@H]1COCCN1C2=NC(=NC(=C2)C3(CC3)[S@](=N)(=O)C)C4=C5C=CNC5=NC=C4 [AZD6738] (first compound max 1 µM, 7x7, partner max 10 µM) | -0.0016 | -0.157 | -0.0528 | -0.0159 | -0.0091 | -0.0069 | 0.0268 | -0.0413 | -0.0927 | 0.019 | -0.0618 | 0.0092 | -0.0133 | -0.0757 | -0.0044 | -0.0221 | -0.0367 | 0.0082 | -0.0105 | -0.0616 |
| CN(CCO)CC[C@H](CSc1ccccc1)Nc1ccc(S(=O)(=O)NC(=O)c2ccc(N3CCC([C@@H](O)c4ccccc4-c4ccc(Cl)cc4)CC3)cc2)cc1S(=O)(=O)C(F)(F)F [AZD4320] + C[C@@H](Nc1cc(F)cc(F)c1)c1cc(C(=O)N(C)C)cc2c(=O)cc(N3CCOCC3)oc12 [AZD8186] (first compound max 1 µM, 7x7, partner max 3 µM) | 0.0218 | -0.0232 | 0.0229 | 0.033 | 0.0851 | 0.0842 | -0.0018 | 0.0755 | 0.0313 | -0.0714 | -0.0491 | 0.0307 | 0.0502 | 0.0346 | -0.034 | 0.0388 | -0.0059 | 0.068 | 0.0222 | 0.0221 |
| Cc1c2c(nn1C)CSCc1cc(n(C)n1)CSc1cc(c3ccccc3c1)OCCCc1c(C(=O)O)n(C)c3c-2c(Cl)ccc13 [AZD5991] + CC1(C)CCC(CN2CCN(c3ccc(C(=O)NS(=O)(=O)c4ccc(NCC5CCOCC5)c([N+](=O)[O-])c4)c(Oc4cnc5[nH]ccc5c4)c3)CC2)=C(c2ccc(Cl)cc2)C1 [Venetoclax] (first compound max 1 µM, 7x7, partner max 1 µM) | 0.0985 | -0.0489 | -0.0332 | -0.0297 | 0.253 | 0.141 | -0.0129 | -0.0496 | -0.157 | 0.0491 | -0.0169 | 0.0111 | 0.0268 | -0.0294 | 0.0436 | 0.0108 | -0.0041 | 0.0902 | 0.0125 |  |
| COc1cccc(OCCCN)c1-c1cc(Nc2cnc(C#N)cn2)n[nH]1 [Prexasertib] + Cc1cc2ncnn2cc1Nc1ncc2c(n1)n(C1CCOCC1)c(=O)n2C [AZD7648] (first compound max 1 µM, 7x7, partner max 10 µM) | -0.0206 | -0.032 | -0.0172 | -0.0383 | 0.0131 | -0.0044 | -0.0236 | -0.0102 | 0.001 | -0.0221 | -0.0143 | -0.0133 |  | 0.001 | -0.0046 | -0.0265 | 0.0065 | -0.0223 | 0.017 | -0.0384 |
| COc1cccc(OCCCN)c1-c1cc(Nc2cnc(C#N)cn2)n[nH]1 [Prexasertib] + O=C(c1cc(Cc2n[nH]c(=O)c3ccccc23)ccc1F)N1CCN(C(=O)C2CC2)CC1 [Olaparib] (first compound max 1 µM, 7x7, partner max 10 µM) | -0.188 | -0.0136 | -0.133 | -0.0741 | -0.0027 | -0.0081 | 0.0002 | -0.0557 | -0.0452 | -0.0668 | -0.0854 | -0.0599 |  | -0.0459 | -0.0265 | -0.0346 | -0.124 | -0.0351 | -0.0312 | -0.0157 |
| COc1cc2c(cc1OCCCCCOc1cc3c(cc1OC)C(=O)N1C=C(C)C[C@H]1C=N3)N=C[C@@H]1CC(C)=CN1C2=O [SG3199] + O=C(c1cc(Cc2n[nH]c(=O)c3ccccc23)ccc1F)N1CCN(C(=O)C2CC2)CC1 [Olaparib] (first compound max 0.001 µM, 7x7, partner max 10 µM) | -0.0443 | -0.0642 | -0.0469 | -0.024 | -0.0375 | -0.0076 | -0.035 | -0.0494 | -0.0256 | 0.0547 | -0.0384 | -0.0049 |  | -0.0472 | -0.0495 | -0.0163 | -0.0307 | -0.0272 | -0.0094 | -0.0144 |
| CCc1c2c(nc3ccc(O)cc13)-c1cc3c(c(=O)n1C2)COC(=O)[C@]3(O)CC [SN-38] + CN(C)CCCOc1ccc(-c2ccc3ncc4c(c3c2)n(C2CCOCC2)c(=O)n4C)cn1 [AZD0156] (first compound max 0.3 µM, 7x7, partner max 1 µM) | -0.0477 | 0.015 | 0.0117 | 0.0265 | -0.023 | -0.0082 | 0.0065 | -0.0408 | -0.0254 | -0.059 | -0.0613 | 0.0872 |  | -0.033 | 0.0735 | 0.0556 | -0.0144 | 0.0206 | -0.0354 | -0.0558 |
